Results from patent publication EP2112152A1, “Dihydropteridinones as Plk Inhibitors” (GPC Biotech AG, priority 2008, dated 2009).
Read-outs that look alike come from different tables or passages of the source.

Experiments:
Type in all cases: cell-based
[1] = system: IMR-90; test: SRB cell proliferation assay, IMR-90; settings: Homo sapiens, 72 hours, SRB assay, slow cycling cell line, read-out: CELLULAR IC50 IMR-90
Procedure: (§1) We observed the surprising finding that compounds of the invention were useful in inhibiting proliferation of tumor cell lines (see Table 3).
(§2) Cells were exposed to the test compounds at various concentrations appropriate to determine an IC50 for 72 hours. Cell proliferation was measured using the SRB assay according to Shekan et al (J Natl Cancer Inst (1990) 82, 1107-112) in order to estimate the IC50 values shown in Table 3. Briefly, cells were plated in 96 well dishes 24 hours prior to compound addition at the densities specified in Table 5.1. The assay was terminated with the addition of cold TCA to a final concentration of 10% after growth medium has been removed and the plates were incubated over night at 4°C. The plates were then washed 5 times with water and 100µl of a Sulforhodamine B solution (4%) was added to each well. The plates were then incubated for 10 minutes at room temperature before removal of unbound dye by washing with 1% acetic acid. The bound dye was solubilised with 10 mM Trizma base and the absorbance read at OD520.
(§3) Inhibitory activity of the compounds (IC) was calculated as % inhibition of cell proliferation compared to cells treated with the solvent (DMSO).
(§4) Table 8.1: 18-Cell Line Panel

[2] = system: HT-29; test: SRB cell proliferation assay, HT-29; settings: Homo sapiens, 72 hours, SRB assay, read-out: CELLULAR IC50 HT-29
Procedure: as §1, §2, §3, §4

[3] = biological target: Plk1 (Homo sapiens, UniProt P53350); test: Cellular Plk1 kinase activity: nucleophosmin (B23) Ser4 phosphorylation in HCT116 cells (MSD electrochemiluminescence); design: host or cells: HCT116; settings: 100 ng/ml nocodazole, 4 hours after compound addition, read-out: Biochemical IC50 Nucleophosmin assay
Procedure: We observed the surprising finding that compounds of the invention were able to penetrate cell membranes and retained their activity as Plk1 inhibitors against native Plk1 expressed within living cancer cells.
Cellular Plk1 kinase activity was measured by quantification of nucleophosmin (B23) Ser4 phosphorylation in a cancer cell line. Nucleophosmin (B23) Ser4 is phosphorylated by Plk1, and this phosphorylation can be specifically detected by cross-reactivity of a phospho-Mek1/2 antibody that is able to recognizes a mitotic-specific phosphorylated form of nucleophosmin (B23) in a nocodazole dependent way (Zhang, H., Shi, X., Paddon, H., Hampong, M., Dai, W., and Pelech, S. (2004) B23/Nuleophosmin Serin 4 Phosphorylation Mediates Mitotic Functions of Polo-like Kinase 1. J. Biol. Chem., 279(34), 35726-35734).
Briefly, HCT116 cells (ATCC, Order No. CCL-247) were plated in 96 well dishes 24 hours prior to nocodazole treatment at 25 000 cells per well. Cells were then treated with 100 ng/ml nocodazole (Sigma-Aldrich, # M1404). 20 hours after nocodazole treatment, cells were exposed to the test compounds at various concentrations appropriate to determine an IC50. 4 hours after compound addition, medium was carefully removed and 120 µl of Complete Tris Lysis Buffer (R60TX; MSD, Gaithersburg MD) was added to each well. Samples were then stored at -20°C.
The level of nucleophosmin (B23) Ser4 phosphorylation in these cell lysis samples was estimated by electrochemiluminescence detection using the Meso Scale Discovery ("MSD") Technology Platform (MSD, Gaithersburg MD). The protocol used was as recommended by the manufacturer with the use of a phospho-Mek1/2 antibody (Cell Signalling, #9121) as primary antibody, and is as follows.
The cell lysates were thawed at room temperature and 40 µl were incubated on 96-well MULTI-ARRAY High Bind plates (L11XB; MSD) for 1.5 - 2 hours at room temperature. The supernatants were then removed and 150 µl of a 5% (w/v) solution of Blocker A (R93AA; MSD) in Tris Wash Buffer (R61TX; MSD) were added to each well. The plates were then incubated for 1 hour at room temperature before removal of the Blocker A solution and washed 4 times with 200 µl Tris Wash Buffer. 25 µl primary antibody (anti-phospho-MEK1/2, Cell Signalling, #9121, rabbit polyclonal), diluted 1:250 in a 1% (w/v) solution of Blocker A in Tris Wash Buffer, were added to each well. The plates were then incubated for 1 hour at room temperature before removal of the antibody solution and washed 4 times with 200 µl Tris Wash Buffer. Then, 25 µl of labelled secondary antibody (SULFO-TAG Goat Anti-Rabbit IgGAntibody (R32AB; MSD), diluted 1:500 in a 1% (w/v) solution of Blocker A in Tris Wash Buffer) were added to each well. The plates were then incubated for 1 hour at room temperature before removal of the antibody solution and washed 4 times with 200 µl Tris Wash Buffer. Then, […] of 1x Read Buffer T (R92TC; MSD) were carefully added to each well and the plates were quantitatively detected for each well with a SECTOR™ Imager 6000 (MSD).
Inhibitory activity of the compounds (IC) was calculated as % inhibition of nucleophosmin (B23) Ser4 phosphorylation compared to cells not treated with nocodazole.

[4] = system: HCT 116; test: SRB cell proliferation assay, HCT 116; settings: Homo sapiens, 72 hours, SRB assay, read-out: CELLULAR IC50 HCT 116
Procedure: as §1, §2, §3, §4

Chain of Plk1 (P53350 whole entry, species assumed): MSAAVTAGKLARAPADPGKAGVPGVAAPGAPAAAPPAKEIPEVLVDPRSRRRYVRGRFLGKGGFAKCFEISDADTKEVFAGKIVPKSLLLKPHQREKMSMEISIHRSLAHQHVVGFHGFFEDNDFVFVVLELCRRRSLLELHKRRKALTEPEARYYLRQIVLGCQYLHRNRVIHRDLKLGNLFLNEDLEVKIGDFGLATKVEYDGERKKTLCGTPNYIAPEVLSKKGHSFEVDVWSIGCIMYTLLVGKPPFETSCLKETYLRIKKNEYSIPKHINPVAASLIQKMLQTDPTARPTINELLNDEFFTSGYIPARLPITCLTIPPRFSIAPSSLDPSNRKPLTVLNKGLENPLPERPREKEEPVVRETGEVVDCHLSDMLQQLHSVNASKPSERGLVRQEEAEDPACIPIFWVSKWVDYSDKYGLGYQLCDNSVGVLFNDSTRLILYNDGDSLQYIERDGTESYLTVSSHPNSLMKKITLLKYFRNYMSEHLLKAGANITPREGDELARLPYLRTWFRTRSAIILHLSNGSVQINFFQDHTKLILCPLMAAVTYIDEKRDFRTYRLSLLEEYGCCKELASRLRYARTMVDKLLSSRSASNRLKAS

Row | IC50 ([2]; HT-29, 72 h) [nM] | IC50 [3] [nM] | IC50 ([4]; HCT-116, 72 h) [nM] | Compound | IC50 [1] [nM] | IC50 ([2]; HT-29) [nM] | IC50 ([4]; HCT-116) [nM]
1 | < 1000 | < 100 | < 1000 | CCC1C(=O)N(C)c2cnc(Nc3ccc(C(=O)N[C@H]4CC[C@H](N5CCN(CC6CC6)CC5)CC4)cc3OC)nc2N1N(C)Cc1ccccc1 (relative stereo) [Compound 16, 4-[8-(Benzyl-methyl-amino)-7-ethyl-5-methyl-6-oxo-5,6,7,8-tetrahydro-pteridin-2-ylamino]-N-[trans-4-(4-cyclopropylmethyl-piperazin-1-yl)-cyclohexyl]-3-methoxy-benzamide] | > 1000 |  | 
2 | < 1000 | < 100 | < 1000 | CCC1C(=O)N(C)c2cnc(Nc3ccc(C(=O)N[C@H]4CC[C@H](N5CCN(CC6CC6)CC5)CC4)cc3OC)nc2N1N(C)CC(C)C (relative stereo) [Compound 24, N-[trans-4-(4-Cyclopropylmethyl-piperazin-1-yl)-cyclohexyl]-4-[7-ethyl-8-(isobutyl-methyl-amino)-5-methyl-6-oxo-5,6,7,8-tetrahydro-pteridin-2-ylamino]-3-methoxy-benzamide] | > 1000 |  | 
3 | < 1000 | < 500 | < 1000 | CCC1C(=O)N(C)c2cnc(Nc3ccc(C(=O)N[C@H]4CC[C@H](N5CCN(CC6CC6)CC5)CC4)cc3OC)nc2N1N(C)CC1CC1 (relative stereo) [Compound 18, 4-[8-(Cyclopropylmethyl-methyl-amino)-7-ethyl-5-methyl-6-oxo-5,6,7,8-tetrahydro-pteridin-2-ylamino]-N-[trans-4-(4-cyclopropylmethyl-piperazin-1-yl)-cyclohexyl]-3-methoxy-benzamide] | > 1000 |  | 
4 | < 1000 | < 100 | < 1000 | CCC1C(=O)N(C)c2cnc(Nc3ccc(C(=O)N[C@H]4CC[C@H](N5CCN(CC6CC6)CC5)CC4)cc3OC)nc2N1N(C)CC1CCCC1 (relative stereo) [Compound 28, 4-[8-(Cyclopentylmethyl-methyl-amino)-7-ethyl-5-methyl-6-oxo-5,6,7,8-tetrahydro-pteridin-2-ylamino]-N-[trans-4-(4-cyclopropylmethyl-piperazin-1-yl)-cyclohexyl]-3-methoxy-benzamide] | > 1000 |  | 
5 | < 1000 | < 100 | < 1000 | CCCN(C)N1c2nc(Nc3ccc(C(=O)NC4CCN(C)CC4)cc3OC)ncc2N(C)C(=O)C1CC (centres unmarked) [Compound 20, 4-[7-Ethyl-5-methyl-8-(methyl-propyl-amino)-6-oxo-5,6,7,8-tetrahydro-pteridin-2-ylamino]-3-methoxy-N-(1-methyl-piperidin-4-yl)-benzamide] | > 1000 |  | 
6 |  | < 100 |  | 4-(8-Dimethylamino-7-ethyl-5-methyl-6-oxo-5,6,7,8-tetrahydro-pteridin-2-ylamino)-3-methoxy-N-(4-piperidin-1-ylmethyl-phenyl)-benzamide [Compound 10] |  |  | 
7 | > 1000 | > 1000 | > 1000 | CCC1C(=O)N(C)c2cnc(Nc3ccc(C(=O)NC4CCN(C)CC4)cc3OC)nc2N1N(C)C (single isomer, unassigned) [Compound 36, 4-(8-dimethylamino-7-ethyl-5-methyl-6-oxo-5,6,7,8-tetrahydro-pteridin-2-ylamino)-3-methoxy-N-(1-methyl-piperidin-4-yl)-benzamide] | > 1000 |  | 
8 |  | < 100 |  | CCC1C(=O)N(C)c2cnc(Nc3ccc(C(=O)NC4CCN(C)CC4)cc3OC)nc2N1N(C)C (single isomer, unassigned) [Compound 37, 4-(8-dimethylamino-7-ethyl-5-methyl-6-oxo-5,6,7,8-tetrahydro-pteridin-2-ylamino)-3-methoxy-N-(1-methyl-piperidin-4-yl)-benzamide] |  |  | 

Further lines, the compound ahead of its results:

Row | Compound | IC50 ([2]; HT-29, 72 h) [nM] | IC50 [3] [nM] | IC50 ([4]; HCT-116, 72 h) [nM] | IC50 [1] [nM] | IC50 ([2]; HT-29) [nM] | IC50 ([4]; HCT-116) [nM]
9 | CCC1C(=O)N(C)c2cnc(Nc3ccc(C(=O)NCc4ccc(N5CCN(C)CC5)cc4)cc3OC)nc2N1N(C)C (centres unmarked) [Compound 11, 4-(8-Dimethylamino-7-ethyl-5-methyl-6-oxo-5,6,7,8-tetrahydro-pteridin-2-ylamino)-3-methoxy-N-[4-(4-methyl-piperazin-1-yl)-benzyl]-benzamide] |  | < 100 |  | > 1000 | < 1000 | < 1000
10 | N-(2-Diethylamino-ethyl)-4-(8-dimethylamino-7-ethyl-5-methyl-6-oxo-5,6,7,8-tetrahydro-pteridin-2-ylamino)-3-methoxy-benzamide [Compound 5] |  | < 100 |  |  |  | 
11 | CCC1C(=O)N(C)c2cnc(Nc3ccc(C(=O)NCCN4CCCC4)cc3OC)nc2N1N(C)C (centres unmarked) [Compound 2, 4-(8-Dimethylamino-7-ethyl-5-methyl-6-oxo-5,6,7,8-tetrahydro-pteridin-2-ylamino)-3-methoxy-N-(2-pyrrolidin-1-yl-ethyl)-benzamide] | < 1000 | < 100 | < 1000 | > 1000 |  | 
12 | 4-(8-Dimethylamino-7-ethyl-5-methyl-6-oxo-5,6,7,8-tetrahydro-pteridin-2-ylamino)-3-methoxy-N-(2-piperidin-1-yl-ethyl)-benzamide [Compound 6] |  | < 100 |  |  |  | 
13 | 4-[8-(Cyclopentylmethyl-methyl-amino)-7-ethyl-5-methyl-6-oxo-5,6,7,8-tetrahydro-pteridin-2-ylamino]-N-(1-ethylpiperidin-4-ylmethyl)-3-methoxy-benzamide [Compound 29] |  | < 100 |  |  |  | 
14 | 4-(8-Dimethylamino-7-ethyl-5-methyl-6-oxo-5,6,7,8-tetrahydro-pteridin-2-ylamino)-3-methoxy-N-[4-(4-methyl-piperazin-1-yl)-phenyl]-benzamide [Compound 8] |  | < 100 |  |  |  | 
15 | N-(2-Diisopropylamino-ethyl)-4-(8-dimethylamino-7-ethyl-5-methyl-6-oxo-5,6,7,8-tetrahydro-pteridin-2-ylamino)-3-methoxy-benzamide [Compound 7] |  | < 100 |  |  |  | 
16 | 4-[8-(Cyclobutylmethyl-methyl-amino)-7-ethyl-5-methyl-6-oxo-5,6,7,8-tetrahydro-pteridin-2-ylamino]-N-[trans-4-(4-cyclopropylmethyl-piperazin-1-yl)-cyclohexyl]-3-methoxy-benzamide [Compound 35] |  | < 500 |  |  |  | 
17 | 4-(8-Dimethylamino-7-ethyl-5-methyl-6-oxo-5,6,7,8-tetrahydro-pteridin-2-ylamino)-N-[4-(4-ethyl-piperazin-1-yl)-phenyl]-3-methoxy-benzamide [Compound 9] |  | < 100 |  |  |  | 
